Laboratory results: patent US20150105252A1, “SUBSTITUTED PYRAZOLES AS HERBICIDES” (E I DU PONT DE NEMOURS AND COMPANY, priority 2013, published 2015)

How the values were obtained:
[1] = tested on: crabgrass, large; experiment: Test A preemergence; type: in vivo, Digitaria sanguinalis; details: preemergence; for Crabgrass, Large plant response rating (0 to 100 scale): 125 g ai/ha, visual injury approx. 10 days after treatment; for Crabgrass, Large plant response rating: 500 g ai/ha, visual injury after approx. 10 days, 0 to 100 scale (0 no effect, 100 complete control)
Procedure, shortened: (§1)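 Seeds were sown in a loam soil–sand blend and given a directed soil spray preemergence; postemergence plants at 2–10 cm, one- to two-leaf stage, were sprayed with compound in non-phytotoxic solvent with surfactant. After about 10 days in a greenhouse, injury was visually rated against untreated controls (0 = no effect, 100 = complete control).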

[2] = tested on: morningglory; experiment: Test A preemergence; type: in vivo, Ipomoea spp.; details: preemergence; for Morningglory plant response rating (0 to 100 scale): 125 g ai/ha, visual injury approx. 10 days after treatment; for Morningglory plant response rating: 500 g ai/ha, visual injury after approx. 10 days, 0 to 100 scale (0 no effect, 100 complete control)
Procedure, shortened: as §1

[3] = tested on: wheat; experiment: Test A preemergence; type: in vivo, Triticum aestivum; details: preemergence; for Wheat plant response rating (0 to 100 scale): 125 g ai/ha, visual injury approx. 10 days after treatment; for Wheat plant response rating: 500 g ai/ha, visual injury after approx. 10 days, 0 to 100 scale (0 no effect, 100 complete control)
Procedure, shortened: as §1

[4] = tested on: barnyardgrass; experiment: Test A postemergence; type: in vivo, Echinochloa crus-galli
Procedure, shortened: as §1

[5] = tested on: crabgrass, large; experiment: Test A postemergence; type: in vivo, Digitaria sanguinalis
Procedure, shortened: as §1

[6] = tested on: pigweed; experiment: Test A postemergence; type: in vivo, Amaranthus retroflexus; details: Postemergence
Procedure, shortened: as §1

[7] = tested on: velvetleaf; experiment: Test A postemergence; type: in vivo, Abutilon theophrasti; details: Postemergence
Procedure, shortened: as §1

[8] = tested on: corn; experiment: Test A postemergence; type: in vivo, Zea mays
Procedure, shortened: as §1

[9] = tested on: rice; experiment: Test B flood; type: in vivo, Oryza sativa; details: 250 g ai/ha, visual rating on 0 to 100 scale (0 no effect, 100 complete control), 13 to 15 days
Procedure, shortened: (§2)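 Plants were grown to the 2-leaf stage and pots flooded to 3 cm above soil. Compounds were applied directly into the paddy water, with depth kept for the test. After 13–15 days in greenhouse, response was rated visually against controls on a 0 (no effect) to 100 (complete control) scale.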

[10] = tested on: sedge, umbrella; experiment: Test B flood; type: in vivo, Cyperus difformis; details: 250 g ai/ha, visual rating on 0 to 100 scale (0 no effect, 100 complete control), 13 to 15 days
Procedure, shortened: as §2

[11] = tested on: ducksalad; experiment: Test B flood; type: in vivo, Heteranthera limosa; details: 250 g ai/ha, visual rating on 0 to 100 scale (0 no effect, 100 complete control), 13 to 15 days
Procedure, shortened: as §2

[12] = tested on: blackgrass; experiment: Test C preemergence; type: in vivo, Alopecurus myosuroides; details: preemergence; for Plant response rating, Blackgrass: 125 g ai/ha, scale 0 to 100, 0 = no effect, 100 = complete control
Procedure, shortened: (§3)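 Seeds were sown in a loam soil–sand blend and sprayed preemergence with compounds formulated in a non-phytotoxic solvent mixture containing surfactant. Postemergence plants, grown in peat/vermiculite medium to 2–18 cm (1- to 4-leaf stage), received the same formulation. After 13 to 15 days in a greenhouse, injury was rated visually against controls (0 = no effect, 100 = complete control).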

[13] = tested on: morningglory; experiment: Test C preemergence; type: in vivo, Ipomoea coccinea; details: preemergence; for Plant response rating, Morningglory: 125 g ai/ha, scale 0 to 100, 0 = no effect, 100 = complete control
Procedure, shortened: as §3

[14] = tested on: nutsedge, yellow; experiment: Test C preemergence; type: in vivo, Cyperus esculentus; details: preemergence; for Plant response rating, Nutsedge, Yellow: 125 g ai/ha, scale 0 to 100, 0 = no effect, 100 = complete control
Procedure, shortened: as §3

[15] = tested on: ragweed; experiment: Test C preemergence; type: in vivo, Ambrosia elation; details: preemergence; for Plant response rating, Ragweed: 125 g ai/ha, scale 0 to 100, 0 = no effect, 100 = complete control
Procedure, shortened: as §3

[16] = Postemergence, 500 g ai/ha, 0 to 100 scale (0 no effect, 100 complete control)
[17] = postemergence, 125 g ai/ha, about 10 days, visual rating on 0 to 100 scale (0 no effect, 100 complete control)
[18] = 125 g ai/ha, 0 to 100 scale, 0 no effect, 100 complete control
[19] = 500 g ai/ha, 0 to 100 scale (0 no effect, 100 complete control)
[20] = 31 g ai/ha, visual rating, scale 0 to 100 (0 no effect, 100 complete control), 13 to 15 days
[21] = 62 g ai/ha, scale 0 to 100 (0 no effect, 100 complete control), 13 to 15 days
[22] = 250 g ai/ha, scale 0 to 100, 0 is no effect, 100 is complete control

SMILES | Crabgrass, Large plant response rating (0 to 100 scale) [1] | Crabgrass, Large plant response rating [1] | Morningglory plant response rating (0 to 100 scale) [2] | Morningglory plant response rating [2] | Wheat plant response rating (0 to 100 scale) [3] | Wheat plant response rating [3] | Barnyardgrass plant response rating [4, 16] | Barnyardgrass plant response rating [4, 17] | Crabgrass, Large plant response rating [5, 16] | Crabgrass, Large plant response rating [5, 17] | Pigweed plant response rating [6, 18] | Pigweed plant response rating [6, 19] | Velvetleaf plant response rating [7, 18] | Velvetleaf plant response rating [7, 19] | Corn plant response rating [8, 16] | Corn plant response rating [8, 17] | Plant response rating, Rice [9] | Plant response rating, Sedge, Umbrella [10] | Plant response rating, Ducksalad [11] | Blackgrass plant response rating [12, 20] | other results
CCOc1cc(C(=O)NC2CC2)nn1Cc1ccnc(C(F)(F)F)c1 [Compound 189] | 100 | 100 | 100 | 100 | 90 | 100 | 90 | 90 | 90 | 90 | 80 | 100 | 100 | 100 | 100 | 80 | 45 | 90 | 85 | 90 | Blackgrass plant response rating [12, 21]: 90; Plant response rating, Blackgrass ([12]; 13 to 15 days): 90; Blackgrass plant response rating [12, 22]: 90; Morningglory plant response rating [13, 20]: 95; Morningglory plant response rating [13, 21]: 98; Plant response rating, Morningglory ([13]; 13 to 15 days): 98; Morningglory plant response rating [13, 22]: 100; Nutsedge, Yellow plant response rating [14, 20]: 25; Nutsedge, Yellow plant response rating [14, 21]: 80; Plant response rating, Nutsedge, Yellow ([14]; 13 to 15 days): 85; Nutsedge, Yellow plant response rating [14, 22]: 95; Ragweed plant response rating [15, 20]: 85; Ragweed plant response rating [15, 21]: 98; Plant response rating, Ragweed ([15]; 13 to 15 days): 100; Ragweed plant response rating [15, 22]: 98
CCONC(=O)c1cc(OCC)n(Cc2ccnc(C(F)(F)F)c2)n1 [Compound 195] | 100 | 100 | 90 | 100 | 80 | 100 | 90 | 70 | 100 | 80 | 100 | 100 | 70 | 100 | 90 | 80 | 10 | 95 | 95 | 5 | Blackgrass plant response rating [12, 21]: 90; Plant response rating, Blackgrass ([12]; 13 to 15 days): 90; Blackgrass plant response rating [12, 22]: 90; Morningglory plant response rating [13, 20]: 35; Morningglory plant response rating [13, 21]: 100; Plant response rating, Morningglory ([13]; 13 to 15 days): 100; Morningglory plant response rating [13, 22]: 100; Nutsedge, Yellow plant response rating [14, 20]: 20; Nutsedge, Yellow plant response rating [14, 21]: 85; Plant response rating, Nutsedge, Yellow ([14]; 13 to 15 days): 85; Nutsedge, Yellow plant response rating [14, 22]: 95; Ragweed plant response rating [15, 21]: 85; Plant response rating, Ragweed ([15]; 13 to 15 days): 90; Ragweed plant response rating [15, 22]: 98
CCNC(=O)c1cc(CC)n(Cc2ccnc(C(F)(F)F)c2)n1 [Compound 196] | 100 | 100 | 100 | 100 | 20 | 100 | 90 | 90 | 100 | 90 | 100 | 100 | 80 | 100 | 90 | 80 | 20 | 70 | 80 | 85 | Blackgrass plant response rating [12, 21]: 90; Plant response rating, Blackgrass ([12]; 13 to 15 days): 90; Blackgrass plant response rating [12, 22]: 90; Morningglory plant response rating [13, 20]: 98; Morningglory plant response rating [13, 21]: 98; Plant response rating, Morningglory ([13]; 13 to 15 days): 100; Morningglory plant response rating [13, 22]: 100; Nutsedge, Yellow plant response rating [14, 20]: 15; Nutsedge, Yellow plant response rating [14, 21]: 65; Plant response rating, Nutsedge, Yellow ([14]; 13 to 15 days): 80; Nutsedge, Yellow plant response rating [14, 22]: 90; Ragweed plant response rating [15, 20]: 85; Ragweed plant response rating [15, 21]: 90; Plant response rating, Ragweed ([15]; 13 to 15 days): 98; Ragweed plant response rating [15, 22]: 98
Cc1cc(C(=O)NC(C)C)nn1Cc1ccnc(C(F)(F)F)c1 [Compound 197] | 100 | 100 | 100 | 100 | 0 | 50 | 100 | 80 | 100 | 80 | 100 | 100 | 30 | 80 | 90 | 30 | 10 | 85 | 95 | 0 | Blackgrass plant response rating [12, 21]: 85; Plant response rating, Blackgrass ([12]; 13 to 15 days): 90; Blackgrass plant response rating [12, 22]: 90; Morningglory plant response rating [13, 20]: 75; Morningglory plant response rating [13, 21]: 100; Plant response rating, Morningglory ([13]; 13 to 15 days): 100; Morningglory plant response rating [13, 22]: 100; Nutsedge, Yellow plant response rating [14, 20]: 0; Nutsedge, Yellow plant response rating [14, 21]: 25; Plant response rating, Nutsedge, Yellow ([14]; 13 to 15 days): 75; Nutsedge, Yellow plant response rating [14, 22]: 85; Ragweed plant response rating [15, 20]: 60; Ragweed plant response rating [15, 21]: 85; Plant response rating, Ragweed ([15]; 13 to 15 days): 95; Ragweed plant response rating [15, 22]: 98
CCCNC(=O)c1cc(CCC)n(Cc2cc(C(F)(F)F)nn2C)n1 [Compound 198] | 100 | 100 | 100 | 100 | 60 | 100 | 100 | 90 | 100 | 90 | 100 | 100 | 30 | 100 | 90 | 90 | 60 | 100 | 100 | 85 | Blackgrass plant response rating [12, 21]: 90; Plant response rating, Blackgrass ([12]; 13 to 15 days): 90; Blackgrass plant response rating [12, 22]: 90; Morningglory plant response rating [13, 20]: 95; Morningglory plant response rating [13, 21]: 100; Plant response rating, Morningglory ([13]; 13 to 15 days): 100; Morningglory plant response rating [13, 22]: 100; Nutsedge, Yellow plant response rating [14, 20]: 5; Nutsedge, Yellow plant response rating [14, 21]: 15; Plant response rating, Nutsedge, Yellow ([14]; 13 to 15 days): 30; Nutsedge, Yellow plant response rating [14, 22]: 65; Ragweed plant response rating [15, 20]: 60; Ragweed plant response rating [15, 21]: 85; Plant response rating, Ragweed ([15]; 13 to 15 days): 98; Ragweed plant response rating [15, 22]: 100
